Measurements taken from patent US12043632B2, “6-heteroaryloxy benzimidazoles and azabenzimidazoles as JAK2 inhibitors” (Ajax Therapeutics, Inc., priority 2020, dated 2024).

Molecular target: T1, JAK2 (JH1domain-catalytic, Y1007F,Y1008F) kinase (Homo sapiens, UniProt O60674, Y1007F/Y1008F)
T1 construct: JAK2 (JH1domain-catalytic, Y1007F,Y1008F) kinase was expressed as N-terminal fusion; made in house; host or cells: transiently transfected HEK293 cells
Assay: JAK2 JH1 Domain Binding Assay
Details: qPCR readout

T1 sequence (O60674 849-1124 Y1007F/Y1008F limits assumed): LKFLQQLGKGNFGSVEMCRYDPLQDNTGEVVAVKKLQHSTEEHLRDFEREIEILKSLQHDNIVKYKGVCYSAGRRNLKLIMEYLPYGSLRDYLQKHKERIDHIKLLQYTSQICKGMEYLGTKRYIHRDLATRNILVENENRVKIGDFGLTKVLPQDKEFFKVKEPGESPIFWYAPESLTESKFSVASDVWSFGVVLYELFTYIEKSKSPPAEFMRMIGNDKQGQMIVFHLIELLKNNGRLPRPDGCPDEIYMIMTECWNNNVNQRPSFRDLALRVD

| SMILES | Kd |
| --- | --- |
| Cn1c(Nc2cc3n(n2)CCCC3(F)F)nc2ncc(Oc3cnn4ccccc34)c(C#N)c21 [Example I-366, 2-((4,4-difluoro-4,5,6,7-tetrahydropyrazolo[1,5-a]pyridin-2-yl)amino)-1-methyl-6-(pyrazolo[1,5-a]pyridin-3-yloxy)-1H-imidazo[4,5-b]pyridine-7-carbonitrile] | < 10 nM |
| COCCOc1cn2ncc(Oc3cnc4nc(Nc5cc(C(F)(F)F)cn(C)c5=O)n(C)c4c3C#N)c2cn1 [Example I-367, 6-((6-(2-methoxyethoxy)pyrazolo[1,5-a]pyrazin-3-yl)oxy)-1-methyl-2-((1-methyl-2-oxo-5-(trifluoromethyl)-1,2-dihydropyridin-3-yl)amino)-1H-imidazo[4,5-b]pyridine-7-carbonitrile] | < 10 nM |
| CN(C)c1n[nH]c2ncc(Oc3cnc4nc(Nc5cc(C(F)(F)F)cn(C)c5=O)n(C)c4c3C#N)cc12 [Example I-368, 6-((3-(dimethylamino)-1H-pyrazolo[3,4-b]pyridin-5-yl)oxy)-1-methyl-2-((1-methyl-2-oxo-5-(trifluoromethyl)-1,2-dihydropyridin-3-yl)amino)-1H-imidazo[4,5-b]pyridine-7-carbonitrile] | < 10 nM |
| COCCOc1ccc2c(Oc3cnc4nc(Nc5cc6n(n5)CCCC6(F)F)n(C)c4c3C#N)cnn2c1 [Example I-369, 2-((4,4-difluoro-4,5,6,7-tetrahydropyrazolo[1,5-a]pyridin-2-yl)amino)-6-((6-(2-methoxyethoxy)pyrazolo[1,5-a]pyridin-3-yl)oxy)-1-methyl-1H-imidazo[4,5-b]pyridine-7-carbonitrile] | < 10 nM |
| Cn1c(Nc2cc3n(n2)CCCC3(F)F)nc2ncc(Oc3cnc4[nH]ncc4c3)c(C#N)c21 [Example I-370, 6-((1H-pyrazolo[3,4-b]pyridin-5-yl)oxy)-2-((4,4-difluoro-4,5,6,7-tetrahydropyrazolo[1,5-a]pyridin-2-yl)amino)-1-methyl-1H-imidazo[4,5-b]pyridine-7-carbonitrile] | < 10 nM |
| CNc1nccn2ncc(Oc3cnc4nc(Nc5cc6n(n5)CCCC6(F)F)n(C)c4c3C#N)c12 [Example I-373, 2-((4,4-difluoro-4,5,6,7-tetrahydropyrazolo[1,5-a]pyridin-2-yl)amino)-1-methyl-6-((4-(methylamino)pyrazolo[1,5-a]pyrazin-3-yl)oxy)-1H-imidazo[4,5-b]pyridine-7-carbonitrile] | < 10 nM |
| COc1ccc2c(Oc3cnc4nc(Nc5cc6n(n5)CCCC6(F)F)n(C)c4c3C#N)cnn2c1 [Example I-374, 2-((4,4-difluoro-4,5,6,7-tetrahydropyrazolo[1,5-a]pyridin-2-yl)amino)-6-((6-methoxypyrazolo[1,5-a]pyridin-3-yl)oxy)-1-methyl-1H-imidazo[4,5-b]pyridine-7-carbonitrile] | < 10 nM |
| COCCOc1cn2ncc(Oc3cnc4nc(Nc5cc(C6CC6)cn(C)c5=O)n(C)c4c3Cl)c2cn1 [Example I-375, 3-((7-chloro-6-((6-(2-methoxyethoxy)pyrazolo[1,5-a]pyrazin-3-yl)oxy)-1-methyl-1H-imidazo[4,5-b]pyridin-2-yl)amino)-5-cyclopropyl-1-methylpyridin-2(1H)-one] | < 10 nM |
| Cn1cc(C(F)(F)F)cc(Nc2nc3ncc(Oc4cnn5cc(OCCN6CCOCC6)ncc45)c(Cl)c3n2C)c1=O [Example I-376, 3-((7-chloro-1-methyl-6-((6-(2-morpholinoethoxy)pyrazolo[1,5-a]pyrazin-3-yl)oxy)-1H-imidazo[4,5-b]pyridin-2-yl)amino)-1-methyl-5-(trifluoromethyl)pyridin-2(1H)-one] | < 10 nM |
| Cn1cc(C(F)(F)F)cc(Nc2nc3ncc(Oc4cnn5cc(OCCN6CCOCC6)ncc45)c(C#N)c3n2C)c1=O [Example I-377, 1-methyl-2-((1-methyl-2-oxo-5-(trifluoromethyl)-1,2-dihydropyridin-3-yl)amino)-6-((6-(2-morpholinoethoxy)pyrazolo[1,5-a]pyrazin-3-yl)oxy)-1H-imidazo[4,5-b]pyridine-7-carbonitrile] | < 10 nM |
| COc1n[nH]c2ncc(Oc3cnc4nc(Nc5cc6n(n5)CCCC6(F)F)n(C)c4c3C#N)cc12 [Example I-378, 2-((4,4-difluoro-4,5,6,7-tetrahydropyrazolo[1,5-a]pyridin-2-yl)amino)-6-((3-methoxy-1H-pyrazolo[3,4-b]pyridin-5-yl)oxy)-1-methyl-1H-imidazo[4,5-b]pyridine-7-carbonitrile] | < 10 nM |
| CNc1cc(F)c2c(Oc3cnc4nc(Nc5cc(C(F)(F)F)cn(C)c5=O)n(C)c4c3C#N)cnn2c1 [Example I-395, 6-((4-fluoro-6-(methylamino)pyrazolo[1,5-a]pyridin-3-yl)oxy)-1-methyl-2-((1-methyl-2-oxo-5-(trifluoromethyl)-1,2-dihydropyridin-3-yl)amino)-1H-imidazo[4,5-b]pyridine-7-carbonitrile] | < 10 nM |
| CNc1cn2ncc(Oc3cnc4nc(Nc5cc(C(F)(F)F)cn(C)c5=O)n(C)c4c3C#N)c2c(C)n1 [Example I-396, 1-methyl-2-((1-methyl-2-oxo-5-(trifluoromethyl)-1,2-dihydropyridin-3-yl)amino)-6-((4-methyl-6-(methylamino)pyrazolo[1,5-a]pyrazin-3-yl)oxy)-1H-imidazo[4,5-b]pyridine-7-carbonitrile] | 10 to 50 nM |
| Cn1cc(C(F)(F)F)cc(Nc2nc3ncc(Oc4cnn5cc(OCCO)ncc45)c(Cl)c3n2C)c1=O [Example I-397, 3-((7-chloro-6-((6-(2-hydroxyethoxy)pyrazolo[1,5-a]pyrazin-3-yl)oxy)-1-methyl-1H-imidazo[4,5-b]pyridin-2-yl)amino)-1-methyl-5-(trifluoromethyl)pyridin-2(1H)-one] | < 10 nM |
| Cn1c(Nc2cc3n(n2)CCCC3(C)C)nc2ncc(Oc3cnn4cc(OCCO)ncc34)c(Cl)c21 [Example I-398, 2-((3-((7-chloro-2-((4,4-dimethyl-4,5,6,7-tetrahydropyrazolo[1,5-a]pyridin-2-yl)amino)-1-methyl-1H-imidazo[4,5-b]pyridin-6-yl)oxy)pyrazolo[1,5-a]pyrazin-6-yl)oxy)ethan-1-ol] | < 10 nM |
| COCc1n[nH]c2ncc(Oc3cnc4nc(Nc5cc6n(n5)CCCC6(F)F)n(C)c4c3C#N)cc12 [Example I-399, 2-((4,4-difluoro-4,5,6,7-tetrahydropyrazolo[1,5-a]pyridin-2-yl)amino)-6-((3-(methoxymethyl)-1H-pyrazolo[3,4-b]pyridin-5-yl)oxy)-1-methyl-1H-imidazo[4,5-b]pyridine-7-carbonitrile] | < 10 nM |
| Cn1c(Nc2cc(C(F)(F)F)n(C3CC4(CCOCC4)C3)n2)nc2ncc(Oc3cnc4[nH]ncc4c3)c(C#N)c21 [Example I-400, 6-((1H-pyrazolo[3,4-b]pyridin-5-yl)oxy)-2-((1-(7-oxaspiro[3.5]nonan-2-yl)-5-(trifluoromethyl)-1H-pyrazol-3-yl)amino)-1-methyl-1H-imidazo[4,5-b]pyridine-7-carbonitrile] | < 10 nM |
| Cn1c(Nc2cc(C(F)(F)F)n(C3CC4(CCOCC4)C3)n2)nc2ncc(Oc3cnc4[nH]ccc4c3)c(C#N)c21 [Example I-401, 6-((1H-pyrrolo[2,3-b]pyridin-5-yl)oxy)-2-((1-(7-oxaspiro[3.5]nonan-2-yl)-5-(trifluoromethyl)-1H-pyrazol-3-yl)amino)-1-methyl-1H-imidazo[4,5-b]pyridine-7-carbonitrile] | 10 to 50 nM |
| Cn1cc(C(F)(F)F)cc(Nc2nc3ncc(Oc4cnn5ccnc(N[C@@H]6CCOC6)c45)c(Cl)c3n2C)c1=O [Example I-402, (R)-3-((7-chloro-1-methyl-6-((4-((tetrahydrofuran-3-yl)amino)pyrazolo[1,5-a]pyrazin-3-yl)oxy)-1H-imidazo[4,5-b]pyridin-2-yl)amino)-1-methyl-5-(trifluoromethyl)pyridin-2(1H)-one] | < 10 nM |
| Cn1cc(C(F)(F)F)cc(Nc2nc3ncc(Oc4cnn5cc(NCCN6CCC(F)(F)C6)ncc45)c(Cl)c3n2C)c1=O [Example I-403, 3-((7-chloro-6-((6-((2-(3,3-difluoropyrrolidin-1-yl)ethyl)amino)pyrazolo[1,5-a]pyrazin-3-yl)oxy)-1-methyl-1H-imidazo[4,5-b]pyridin-2-yl)amino)-1-methyl-5-(trifluoromethyl)pyridin-2(1H)-one] | < 10 nM |
| CNc1cn2ncc(Oc3cnc4nc(Nc5cc(C(F)(F)F)cn(C)c5=O)n(C)c4c3)c2cn1 [Example I-404, 1-methyl-3-((1-methyl-6-((6-(methylamino)pyrazolo[1,5-a]pyrazin-3-yl)oxy)-1H-imidazo[4,5-b]pyridin-2-yl)amino)-5-(trifluoromethyl)pyridin-2(1H)-one] | 10 to 50 nM |
